pIC50: −log10 of the molar value. Active and inactive are the calls of the source. The rule behind the calls is not given here.

Test [1] has as its target RmtA (Emericella nidulans) (UniProt Q5VLE3). Nature of the test: Inhibition of Aspergillus nidulans RmtA at 2 uM by TRF assay.
The target is the same in test [2]. Nature of the test: Inhibition of Aspergillus nidulans RmtA at 10 uM by TRF assay.
Test [3] has as its target RmtA (Emericella nidulans, UniProt Q5VLE3). In words: Inhibition of Aspergillus nidulans RmtA by TRF assay.
For test [4], the target named is T1, Estrogen receptor (Homo sapiens) (UniProt P03372).
T1 sequence (whole entry): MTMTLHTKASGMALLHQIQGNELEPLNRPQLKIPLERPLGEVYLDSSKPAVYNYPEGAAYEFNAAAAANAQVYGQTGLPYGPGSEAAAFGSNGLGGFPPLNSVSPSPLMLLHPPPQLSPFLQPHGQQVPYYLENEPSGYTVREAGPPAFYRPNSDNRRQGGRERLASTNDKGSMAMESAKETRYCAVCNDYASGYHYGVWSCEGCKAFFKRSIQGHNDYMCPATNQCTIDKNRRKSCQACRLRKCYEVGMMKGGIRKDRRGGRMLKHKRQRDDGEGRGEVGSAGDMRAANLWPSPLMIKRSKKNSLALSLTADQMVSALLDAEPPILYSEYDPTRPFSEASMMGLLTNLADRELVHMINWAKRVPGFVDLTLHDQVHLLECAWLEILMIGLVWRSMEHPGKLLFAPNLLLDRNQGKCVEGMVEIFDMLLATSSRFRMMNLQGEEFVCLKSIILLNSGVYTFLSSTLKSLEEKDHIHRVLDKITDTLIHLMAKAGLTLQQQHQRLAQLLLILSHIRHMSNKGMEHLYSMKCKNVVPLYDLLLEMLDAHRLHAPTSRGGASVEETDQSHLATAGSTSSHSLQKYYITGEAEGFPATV
In words: Inhibition of ERalpha activation in MCF-7-2a cells by reporter gene assay. Format: cell-based.

In test [5] the target is T2, Androgen receptor (Homo sapiens) (UniProt P10275).
T2 sequence (whole entry): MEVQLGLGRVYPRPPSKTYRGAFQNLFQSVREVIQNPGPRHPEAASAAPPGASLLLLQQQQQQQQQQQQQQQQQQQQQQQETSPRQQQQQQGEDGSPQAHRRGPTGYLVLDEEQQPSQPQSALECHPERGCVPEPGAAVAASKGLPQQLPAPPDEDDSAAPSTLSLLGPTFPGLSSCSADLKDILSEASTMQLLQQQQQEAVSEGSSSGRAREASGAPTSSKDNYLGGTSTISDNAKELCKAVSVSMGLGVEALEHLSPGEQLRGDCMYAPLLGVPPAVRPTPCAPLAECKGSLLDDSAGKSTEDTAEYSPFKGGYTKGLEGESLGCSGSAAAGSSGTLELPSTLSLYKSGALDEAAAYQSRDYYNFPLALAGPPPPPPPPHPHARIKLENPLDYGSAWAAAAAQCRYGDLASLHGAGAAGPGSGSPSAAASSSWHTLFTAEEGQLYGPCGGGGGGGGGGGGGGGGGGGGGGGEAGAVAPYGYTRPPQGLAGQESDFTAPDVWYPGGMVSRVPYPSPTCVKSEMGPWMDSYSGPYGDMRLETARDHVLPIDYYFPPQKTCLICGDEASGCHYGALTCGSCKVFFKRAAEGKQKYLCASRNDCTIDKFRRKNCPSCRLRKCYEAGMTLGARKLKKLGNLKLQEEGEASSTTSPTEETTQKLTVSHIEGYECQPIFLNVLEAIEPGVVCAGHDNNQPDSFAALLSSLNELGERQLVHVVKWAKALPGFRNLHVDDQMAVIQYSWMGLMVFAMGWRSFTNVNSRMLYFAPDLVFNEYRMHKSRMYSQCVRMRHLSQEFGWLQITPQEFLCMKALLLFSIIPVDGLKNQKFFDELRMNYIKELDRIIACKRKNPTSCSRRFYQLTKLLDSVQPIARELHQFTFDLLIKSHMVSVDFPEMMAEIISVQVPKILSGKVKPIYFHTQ
In words: Inhibition of androgen receptor activation in MCF-7-2a cells by reporter gene assay. Format: cell-based.

Test [6] deals with T1, Estrogen receptor (Homo sapiens). Nature of the test: Inhibition of estradiol-mediated ERalpha activation in MCF-7-2a cells at 150 uM. Format: cell-based. Further details: scale not given: the % may be the effect or the level left.

Chain of RmtA (Q5VLE3 whole entry): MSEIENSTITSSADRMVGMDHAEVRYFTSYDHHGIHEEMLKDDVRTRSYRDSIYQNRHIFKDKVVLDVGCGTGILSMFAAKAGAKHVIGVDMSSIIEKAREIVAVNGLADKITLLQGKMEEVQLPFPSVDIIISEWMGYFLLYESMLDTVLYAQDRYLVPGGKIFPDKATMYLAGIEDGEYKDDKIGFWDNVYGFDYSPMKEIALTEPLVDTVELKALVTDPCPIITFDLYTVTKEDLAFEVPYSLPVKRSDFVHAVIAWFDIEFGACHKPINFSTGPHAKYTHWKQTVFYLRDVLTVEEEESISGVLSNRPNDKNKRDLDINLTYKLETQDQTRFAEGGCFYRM
Chain of RmtA (Emericella nidulans) (Q5VLE3 as listed by the source): as the sequence (Q5VLE3 whole entry) above

On to `CC(C)(CN)SCc1ccccc1`, for which, in test [1], the outcome was inactive. Further, the inhibition in test [2] worked out at 68.3%.

Regarding `Cc1ccc(CNc2ncnc3[nH]cnc23)cc1`, the inhibition in test [1] was 26.1%; in test [2], 77%.

In the case of `N=C(N)SCc1cc(Cl)cc(Cl)c1O`, the figures for the inhibition in test [1] and in test [2] were 18.3% and 83.9%, respectively.

`Nc1ccc(S(=O)(=O)c2ccc(NCN3C(=O)NC(=O)C(=O)C3=O)cc2)cc1` [ALLANTODAPSONE] had a pIC50 in test [3] of 5.08.

`O=C(Nc1ccc2c(O)cc(S(=O)(=O)O)cc2c1)Nc1ccc2c(O)cc(S(=O)(=O)O)cc2c1`: the result in test [4], in test [5] and in test [6] was Active. The compound further showed a pIC50 in test [3] of 4.47.

With `c1nc(NCCCc2c[nH]cn2)c2nc[nH]c2n1`, the inhibition was found to be 34.9% in test [1] and 64.7% in test [2].

As for `N=C(N)c1ccc(/C=C/c2ccc(C(=N)N)cc2)cc1` [STILBAMIDINE], the pIC50 in test [3] is 4.52. In addition, the Activity in test [6] was 75%.

As to `N=C(N)Nc1nc2cc([N+](=O)[O-])ccc2[nH]1`, the results for the inhibition in test [1] and in test [2] were 15.6% and 75.1%, respectively.
